Measurements as given in patent US9580432B2, “Fused pyrimidine compound or salt thereof” (TAIHO PHARMACEUTICAL CO., LTD., priority 2013, dated 2017).

What was measured:
A431 cells / TMD8 cells = assay: Proliferation inhibitory activity against cell lines expressing BTK and EGFR (in vitro), comparison of selectivity; assay type: cell-based, human; conditions: ratio from GI50 (nM), 3 days culture, CELLTITER GLO
From the text: TMD8 cells, which are of a diffuse large B-cell lymphoma cell line expressing BTK, were suspended in RPMI1640 medium (manufactured by Life Technologies Corp.) containing 10% fetal bovine serum. A431 cells, which are of an EGFR-overexpressing, highly activated human epidermoid carcinoma cell line, were suspended in DMEM, high glucose medium (manufactured by Life Technologies Corp.) containing 10% fetal bovine serum. The cell suspensions were inoculated into each well of 384-well flat-bottomed microplates, and the cells were cultured for 1 day at 37° C. in an incubator containing 5% carbon dioxide gas. […] A DMSO solution of the test compounds was diluted with the medium used in the suspension of the each cells, and this was added to each of the wells of the cell culture plates such that the final concentration of DMSO would be 0.2%. The cells were further cultured for 3 days at 37° C. in an incubator containing 5% carbon dioxide gas. […] Proliferation inhibition ratio (%)=(C−T)/(C−C0)×100
T: Luminescence intensity of a well in which the test compound was added
C: Luminescence intensity of a well in which the test compound was not added
C0: Luminescence intensity of a well measured before the addition of the test compound
When a comparison is made between the cell proliferation inhibitory activity against A431 cells that depends on the EGFR proliferation signaling and the cell proliferation inhibitory activity against TMD8 cells that depends on the BTK proliferation signaling, the influence of the respective kinases at a cellular level is able to be evaluated. That is, when the “A431 cell proliferation inhibition ratio/TMD8 cell proliferation inhibition ratio” is calculated, it is contemplated that as the value of the ratio is larger, the selectivity to BTK over EGFR in the cells is higher.

[1] = system: purified recombinant human EGFR protein / BTK; assay: BTK inhibition selectivity compared with EGFR kinase inhibitory activity (in vitro); assay type: biochemical; conditions: EGFR assay ATP 1.5 μM
Protocol: 1) Measurement of BTK Inhibitory Activity
2) Measurement of EGFR Inhibitory Activity
Therefore, a biotinated peptide (biotin-[…]) was produced by referring to the amino acid sequence of the peptide. The purified recombinant human EGFR protein used in the test was purchased from Carna Biosciences, Inc.
With regard to the measurement of the inhibitory activity of the compounds, firstly, the compounds of the present invention were diluted stepwise with dimethyl sulfoxide (DMSO). […] The reaction was terminated by adding EDTA thereto in order to obtain a final concentration of 24 mM. Subsequently, a detection liquid containing Eu-labeled anti-phosphorylated tyrosine antibody PT66 (PerkinElmer, Inc.) and […] APC-SA (PerkinElmer, Inc.) was added thereto, and the system was left to stand for 2 hours or longer at room temperature.
3) BTK Inhibition Selectivity

[2] = target: purified recombinant human BTK protein (Homo sapiens (Human), UniProt Q06187); assay: Measurement of BTK inhibitory activity (in vitro); assay type: biochemical; conditions: FL-PEPTIDE 2 substrate 1 μM, ATP 45 μM, 40 minutes at 25° C.
From the text: With regard to the setting of the conditions for a method for measuring the inhibitory activity of a compound against BTK kinase activity in vitro, it is described in the consumable reagent supplies price list for LabChip (registered trademark) series of PerkinElmer, Inc. that FL-PEPTIDE 2 corresponds to a substrate peptide for the measurement of BTK kinase activity. Therefore, FL-PEPTIDE 2 was used as a substrate. The purified recombinant human BTK protein used in the test was purchased from Carna Biosciences, Inc.
With regard to the measurement of the inhibitory activity of the compounds, firstly, the compounds of the present invention were diluted stepwise with dimethyl sulfoxide (DMSO). Subsequently, BTK protein, a substrate peptide (final concentration was 1 μM), magnesium chloride (final concentration was 10 mM), ATP (final concentration was 45 μM), and a DMSO solution of the compounds of the present invention (final concentration of DMSO was 5%) were added to a buffer solution for kinase reaction (20 mM HEPES (pH 7.5), 2 mM dithiotheitol, 0.01% Triton X-100), and after the solution was incubated for 40 minutes at 25° C., a kinase reaction was carried out. The reaction was terminated by adding EDTA thereto in order to obtain a final concentration of 30 mM. Finally, a substrate peptide that was not phosphorylated (S) and a phosphorylated peptide (P) were separated and detected by microchannel capillary electrophoresis using a LabChip EZ Reader II (PerkinElmer, Inc.).

Sequence of purified recombinant human BTK protein (Q06187 whole entry): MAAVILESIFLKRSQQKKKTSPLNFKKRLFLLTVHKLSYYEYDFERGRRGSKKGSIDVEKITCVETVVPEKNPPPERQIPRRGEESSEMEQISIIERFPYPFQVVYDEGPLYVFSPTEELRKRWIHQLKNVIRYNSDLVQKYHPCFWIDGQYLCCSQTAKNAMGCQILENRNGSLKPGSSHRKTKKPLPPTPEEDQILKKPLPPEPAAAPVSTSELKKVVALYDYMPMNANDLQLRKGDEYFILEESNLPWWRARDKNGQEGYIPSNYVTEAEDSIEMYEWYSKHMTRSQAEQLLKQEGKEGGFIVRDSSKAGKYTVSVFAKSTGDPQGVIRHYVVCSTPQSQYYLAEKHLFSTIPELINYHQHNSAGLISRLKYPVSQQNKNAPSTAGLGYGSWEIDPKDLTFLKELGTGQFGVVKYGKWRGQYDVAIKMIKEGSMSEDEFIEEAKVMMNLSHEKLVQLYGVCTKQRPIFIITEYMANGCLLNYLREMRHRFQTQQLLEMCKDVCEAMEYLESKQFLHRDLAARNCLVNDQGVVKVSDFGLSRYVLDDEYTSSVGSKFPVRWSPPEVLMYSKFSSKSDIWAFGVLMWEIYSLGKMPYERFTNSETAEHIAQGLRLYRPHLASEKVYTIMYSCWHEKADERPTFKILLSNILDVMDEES

| Compound | A431 cell proliferation inhibition ratio/TMD8 cell proliferation inhibitio ratio (A431 cells / TMD8 cells) | EGFR inhibitory activity IC50 value (nM)/BTK inhibitory activity IC50 value (nM) [1] | IC50 [2] [nM] |
| --- | --- | --- | --- |
| C=CC(=O)N1CCC[C@@H](n2nc(C(=O)Nc3nc4ncccc4o3)c3c(N)ncnc32)C1 [Example 9, (R)-1-(1-acryloylpiperidin-3-yl)-4-amino-N-(oxazolo[4,5-b]pyridin-2-yl)-1H-pyrazolo[3,4-d]pyrimidine-3-carboxamide] | 8196.7 | 28.4 | 1.37 |
| CN(C)C/C=C/C(=O)N1CCC[C@@H](n2nc(C(=O)Nc3nc4cc(Cl)ccc4o3)c3c(N)ncnc32)C1 [Example 15, (R,E)-4-amino-N-(5-chlorobenzo[d]oxazol-2-yl)-1-(1-(4-(dimethylamino)but-2-enoyl)piperidin-3-yl)-1H-pyrazolo[3,4-d]pyrimidine-3-carboxamide] | 16442.0 | 145.0 | 0.786 |
| CCN(C)C/C=C/C(=O)N1CCC[C@@H](n2nc(C(=O)Nc3nc4cc(Cl)ccc4o3)c3c(N)ncnc32)C1 [Example 16, (R,E)-4-amino-N-(5-chlorobenzo[d]oxazol-2-yl)-1-(1-(4-(ethyl(methyl)amino)but-2-enoyl)piperidin-3-yl)-1H-pyrazolo[3,4-d]pyrimidine-3-carboxamide] | >16313.2 | 158.1 | 0.733 |
| CCN(CC)C/C=C/C(=O)N1CCC[C@@H](n2nc(C(=O)Nc3nc4cc(Cl)ccc4o3)c3c(N)ncnc32)C1 [Example 17, (R,E)-4-amino-N-(5-chlorobenzo[d]oxazol-2-yl)-1-(1-(4-(diethylamino)but-2-enoyl)piperidin-3-yl)-1H-pyrazolo[3,4-d]pyrimidine-3-carboxamide] | >12345.7 | 157.2 | 0.811 |
| CC(C)N(C)C/C=C/C(=O)N1CC[C@@H](n2cc(C(=O)Nc3nc4cc(-c5ccccc5)ccc4o3)c3c(N)ncnc32)C1 [Example 59, (R,E)-4-amino-N-(5-phenylbenzo[d]oxazol-2-yl)-7-(1-(4-(isopropyl(methyl)amino)but-2-enoyl)pyrrolidin-3-yl) 7H-pyrrolo[2,3-d]pyrimidine-5-carboxamide] | – | 16.3 | 1.51 |
| Nc1ncnc2c1c(C(=O)Nc1nc3cc(-c4ccccc4)ccc3o1)cn2[C@@H]1CCN(C(=O)/C=C/CN2CCCC2)C1 [Example 60, (R,E)-4-amino-N-(5-phenylbenzo[d]oxazol-2-yl)-7-(1-(4-(pyrrolidin-1-yl)but-2-enoyl)pyrrolidin-3-yl) 7H-pyrrolo[2,3-d]pyrimidine-5-carboxamide] | – | 32.4 | 1.88 |
| Nc1ncnc2c1c(C(=O)Nc1nc3cc(-c4ccccc4)ccc3o1)cn2[C@@H]1CCN(C(=O)/C=C/CN2CCCCC2)C1 [Example 61, (R,E)-4-amino-N-(5-phenylbenzo[d]oxazol-2-yl)-7-(1-(4-(piperidin-1-yl)but-2-enoyl)pyrrolidin-3-yl) 7H-pyrrolo[2,3-d]pyrimidine-5-carboxamide] | – | 67.5 | 2.34 |
| CN(C)C/C=C/C(=O)N1CC[C@H](n2nc(C(=O)Nc3nc4ccccc4o3)c3c(N)ncnc32)C1 [Example 73, (S,E)-4-amino-N-(benzo[d]oxazol-2-yl)-1-(1-(4-(dimethylamino)but-2-enoyl)pyrrolidin-3-yl)-1H-pyrazolo[3,4-d]pyrimidine-3-carboxamide] | – | 11.2 | 259 |
| C=CC(=O)N1CC(Cn2nc(C(=O)Nc3nc4cc(F)ccc4o3)c3c(N)ncnc32)C1 [Example 75, 1-((1-acryloylazetidin-3-yl)methyl)-4-amino-N-(5-fluorobenzo[d]oxazol-2-yl)-1H-pyrazolo[3,4-d]pyrimidine-3-carboxamide] | >1643.7 | 58.2 | – |
| C=CC(=O)N1CC(Cn2nc(C(=O)Nc3nc4cc(Cl)ccc4o3)c3c(N)ncnc32)C1 [Example 76, 1-((1-acryloylazetidin-3-yl)methyl)-4-amino-N-(5-chlorobenzo[d]oxazol-2-yl)-1H-pyrazolo[3,4-d]pyrimidine-3-carboxamide] | >2345.8 | 11.4 | – |
| C=CC(=O)N1CCC(Cn2nc(C(=O)Nc3nc4cc(F)ccc4o3)c3c(N)ncnc32)CC1 [Example 77, 1-((1-acryloylpiperidin-4-yl)methyl)-4-amino-N-(5-fluorobenzo[d]oxazol-2-yl)-1H-pyrazolo[3,4-d]pyrimidine-3-carboxamide] | >6793.5 | 203.7 | – |
| C=CC(=O)N[C@H]1CC[C@@H](n2nc(C(=O)Nc3nc4cc(Cl)ccc4o3)c3c(N)ncnc32)CC1 [Example 78, 1-((1S,4S)-4-acrylamidocyclohexyl)-4-amino-N-(5-chlorobenzo[d]oxazol-2-yl)-1H-pyrazolo[3,4-d]pyrimidine-3-carboxamide] | >23596.7 | 100.7 | – |
| C=CC(=O)N1CCC(Cn2nc(C(=O)Nc3nc4cc(Cl)ccc4o3)c3c(N)ncnc32)CC1 [Example 80, 1-((1-acryloylpiperidin-4-yl)methyl)-4-amino-N-(5-chlorobenzo[d]oxazol-2-yl)-1H-pyrazolo[3,4-d]pyrimidine-3-carboxamide] | 14348.9 | 75.4 | – |
| C=CC(=O)N[C@H]1CC[C@@H](n2nc(C(=O)Nc3nc4cc(F)ccc4o3)c3c(N)ncnc32)CC1 [Example 81, 1-((1S,4S)-4-acrylamidocyclohexyl)-4-amino-N-(5-fluorobenzo[d]oxazol-2-yl)-1H-pyrazolo[3,4-d]pyrimidine-3-carboxamide] | 8346.7 | 204.9 | – |
| C=CC(=O)N1CCC(n2nc(C(=O)Nc3nc4ccccc4o3)c3c(N)ncnc32)C1 (centres unmarked) [Example 82, 1-(1-acryloylpyrrolidin-3-yl)-4-amino-N-(benzo[d]oxazol-2-yl)-1H-pyrazolo[3,4-d]pyrimidine-3-carboxamide] | 8143.0 | 10.9 | – |
| C=CC(=O)N1CCC(n2nc(C(=O)Nc3nc4cc(F)ccc4o3)c3c(N)ncnc32)C1 (centres unmarked) [Example 83, 1-(1-acryloylpyrrolidin-3-yl)-4-amino-N-(5-fluorobenzo[d]oxazol-2-yl)-1H-pyrazolo[3,4-d]pyrimidine-3-carboxamide] | >18797.0 | 39.6 | – |
| (E)-4-amino-N-(5-chlorobenzo[d]oxazol-2-yl)-7-(1-(4-(dimethylamino)but-2-enoyl)azetidin-3-yl) 7H-pyrrolo[2,3-d]pyrimidine-5-carboxamide [Example 47] | – | 20.4 | 7.34 |
